In the test the test system is C. parvum strain UGA1. The test can be described thus: C. parvum growth inhibition assay (Nluc luminescence in HCT-8 cells). The conditions noted are these: Cryptosporidium parvum; for inhibition at 1 µM / inhibition at 10 µM: HCT-8; for inhibition at 1 µM: read-out: % inh @ 1 uM C. parvum; for inhibition at 10 µM: read-out: % inh @ 10 uM C. parvum; for EC50: HCT-8, 48 h, C. parvum growth inhibition in HCT-8 cells, 48 hours, 6 concentrations 10-0.04 μM. The class given is cell-based, Cryptosporidium parvum.

The mark [1] stands for this setting: single point inhibition at 1 uM.
Setting [2] is: single point inhibition at 10 uM.
Setting [3] is: single point inhibition @ 10 uM.

Each structure is given as a SMILES string. Read-outs that look alike come from different tables or passages of the source.

As to `COc1nccc(-c2cc3cnc(NC(=O)c4cn(CC5CCOC5)nc4C)cc3[nH]2)n1` (stereo in doubt) [Example 246, (R)-N-(2-(2-methoxypyrimidin-4-yl)-1H-pyrrolo[3,2-c]pyridin-6-yl)-3-methyl-1-((tetrahydrofuran-3-yl)methyl)-1H-pyrazole-4-carboxamide], the inhibition at 1 µM under setting [1] fell in the range of 0 to 33%. In addition, the inhibition at 10 µM under setting [2] fell in the range of 0 to 33%.

Take `Cc1cc(-c2cc3cnc(NC(=O)c4cc(C(F)(F)F)n(C)n4)cc3[nH]2)ccn1` [Example 294, 1-methyl-N-(2-(2-methylpyridin-4-yl)-1H-pyrrolo[3,2-c]pyridin-6-yl)-5-(trifluoromethyl)-1H-pyrazole-3-carboxamide]: the inhibition at 1 µM under setting [1] lay in the range of 0 to 33%. Besides, the inhibition at 10 µM under setting [2] is 0 to 33%.

By EC50 is commonly meant the concentration needed to bring the measured effect to its halfway point. The low end stands for an effect from little substance, the high end for a need for much substance. On to `O=C(CC1COC1)Nc1cc2[nH]c(-c3ccnc(C(F)(F)F)n3)cc2cn1` [Example 91, 2-(oxetan-3-yl)-N-(2-(2-(trifluoromethyl)pyrimidin-4-yl)-1H-pyrrolo[3,2-c]pyridin-6-yl)acetamide], for which the EC50 was over 1 µM. For the same compound, the inhibition at 1 µM (single point inhibition @ 1 uM) was 0 to 33%. For the same compound, under setting [3], the inhibition at 10 µM lay in the range of 0 to 33%.

On to `CCn1cc(C(=O)Nc2cc3[nH]c(-c4ccnc(OCC(F)(F)F)n4)cc3cn2)c(C)n1` [Example 242, 1-ethyl-3-methyl-N-(2-(2-(2,2,2-trifluoroethoxy)pyrimidin-4-yl)-1H-pyrrolo[3,2-c]pyridin-6-yl)-1H-pyrazole-4-carboxamide], for which the inhibition at 1 µM under setting [1] lay within 0 to 33%. Further, the inhibition at 10 µM under setting [2] lay in the range of 0 to 33%.

The compound `Cn1cc(C(=O)Nc2cc3[nH]c(-c4cncn4C)cc3cn2)cn1` [Example 90, 1-methyl-N-(2-(1-methyl-1H-imidazol-5-yl)-1H-pyrrolo[3,2-c]pyridin-6-yl)-1H-pyrazole-4-carboxamide] returned an EC50 of over 1 µM. The inhibition at 1 µM (single point inhibition @ 1 uM) was in the range of 33 to 66%. In addition, the inhibition at 10 µM under setting [3] fell in the range of 0 to 33%.

In the case of `Cc1cc(-c2cc3cnc(NC(=O)C4CCCO4)cc3[nH]2)ccn1` (stereo in doubt) [Example 182, (S)-N-(2-(2-methylpyridin-4-yl)-1H-pyrrolo[3,2-c]pyridin-6-yl)tetrahydrofuran-2-carboxamide], the inhibition at 1 µM (single point inhibition @ 1 uM) lay within 0 to 33%. Under setting [3], the inhibition at 10 µM lay within 67 to 100%.

As to `COc1nccc(-c2cc3cnc(NC4CCOCC4)cc3[nH]2)n1` [Example 62, 2-(2-methoxypyrimidin-4-yl)-N-(tetrahydro-2H-pyran-4-yl)-1H-pyrrolo[3,2-c]pyridin-6-amine], the EC50 was over 1 µM.

For `CC(C)COc1nccc(-c2cc3cnc(NC(=O)c4cnn(C)c4)cc3[nH]2)n1` [Example 311, N-(2-(2-isobutoxypyrimidin-4-yl)-1H-pyrrolo[3,2-c]pyridin-6-yl)-1-methyl-1H-pyrazole-4-carboxamide], under setting [1], the inhibition at 1 µM lay in the range of 0 to 33%. Besides, the inhibition at 10 µM under setting [2] is 0 to 33%.

With `Cc1cc(-c2cc3cnc(Nc4cccc(-c5nc[nH]n5)c4)cc3[nH]2)ccn1` [Example 66, N-(3-(1H-1,2,4-triazol-3-yl)phenyl)-2-(2-methylpyridin-4-yl)-1H-pyrrolo[3,2-c]pyridin-6-amine], the 50% effective concentration (EC50) was over 1 µM. Also, the inhibition at 1 µM (single point inhibition @ 1 uM) was 67 to 100%. Moreover, under setting [3], the inhibition at 10 µM lay in the range of 67 to 100%.

Consider `Cn1c(-c2cc(C(F)(F)F)ncn2)cc2cnc(NC(=O)C3CC3)cc21` [Example 130, N-(1-methyl-2-(6-(trifluoromethyl)pyrimidin-4-yl)-1H-pyrrolo[3,2-c]pyridin-6-yl)cyclopropanecarboxamide], for which the EC50 was over 1 µM.

For `CC(C)n1cc(C(=O)Nc2cc3c(cn2)cc(-c2ccnc(NC4CC4)n2)n3C)cn1` [Example 132, N-(2-(2-(cyclopropylamino)pyrimidin-4-yl)-1-methyl-1H-pyrrolo[3,2-c]pyridin-6-yl)-1-isopropyl-1H-pyrazole-4-carboxamide], the inhibition at 1 µM (single point inhibition @ 1 uM) fell in the range of 0 to 33%. For the same compound, the inhibition at 10 µM under setting [3] lay in the range of 67 to 100%.

On to `Cc1cc(-c2cc3cnc(NC(=O)C(C)C)cc3n2C)ncn1` [Example 118, N-(1-methyl-2-(6-methylpyrimidin-4-yl)-1H-pyrrolo[3,2-c]pyridin-6-yl)isobutyramide], for which the EC50 was over 1 µM.

`Cn1c(-c2cc(NCC(F)(F)F)ncn2)cc2cnc(NC3CCOCC3)cc21` [Example 365] registered an EC50 of over 1 µM.

`Cn1c(-c2ccnc(NCC(F)(F)F)n2)cc2cnc(N[C@H]3CCCOC3)cc21` (racemic) [Example 36, 1-Methyl-N-[rac-(3s)-tetrahydropyran-3-yl]-2-[2-(2,2,2-trifluoroethylamino)pyrimidin-4-yl]pyrrolo[3,2-c]pyridin-6-amine] showed an EC50 of over 1 µM. Besides, for the setting “single point inhibition @ 1 uM”, the inhibition at 1 µM was 33 to 66%. Also, under setting [3], the inhibition at 10 µM was in the range of 67 to 100%.

`Cn1c(-c2ccnc(NCC(F)(F)F)n2)cc2cnc(NC3CCCOC3)cc21` (stereo in doubt) [Example 386, (R)-1-methyl-N-(tetrahydro-2H-pyran-3-yl)-2-(2-(2,2,2-trifluoroethyl)amino)pyrimidin-4-yl)-1H-pyrrolo[3,2-c]pyridin-6-amine] gave an EC50 of over 1 µM.

On to `Cc1cc(-c2cc3cnc(NC(=O)C4CC4)cc3n2CCN(C)C)ccn1` [Example 333, N-(1-(2-(dimethylamino)ethyl)-2-(2-methylpyridin-4-yl)-1H-pyrrolo[3,2-c]pyridin-6-yl)cyclopropanecarboxamide], for which the inhibition at 1 µM under setting [1] lay in the range of 0 to 33%. Under setting [2], the inhibition at 10 µM was 0 to 33%.

Compound `Cc1cc(-c2cc3cnc(NCC4CC4)cc3[nH]2)ccn1` [Example 67, N-(cyclopropylmethyl)-2-(2-methylpyridin-4-yl)-1H-pyrrolo[3,2-c]pyridin-6-amine] returned an EC50 of over 1 µM.

Turning to `c1cc(-c2cc3cnc(NC4CCOCC4)cc3[nH]2)nc(N2CCCC2)n1` [Example 372, 2-(2-(pyrrolidin-1-yl)pyrimidin-4-yl)-N-(tetrahydro-2H-pyran-4-yl)-1H-pyrrolo[3,2-c]pyridin-6-amine], the EC50 is under 0.5 µM.

Compound `Cn1c(-c2ccnc(C(F)(F)F)n2)cc2cnc(NC3CCOCC3)cc21` [Example 396, 1-methyl-N-(tetrahydro-2H-pyran-4-yl)-2-(2-(trifluoromethyl)pyrimidin-4-yl)-1H-pyrrolo[3,2-c]pyridin-6-amine] displayed an EC50 of over 1 µM.

`Cc1cccc(-c2cc3cnc(NC4CCOCC4)cc3[nH]2)c1` [Example 352, N-(tetrahydro-2H-pyran-4-yl)-2-m-tolyl-1H-pyrrolo[3,2-c]pyridin-6-amine] returned an EC50 of over 1 µM.

On to `Cc1ncc(-c2cc3cnc(NC(=O)c4cnn(C)c4)cc3[nH]2)o1` [Example 267, 1-methyl-N-(2-(2-methyloxazol-5-yl)-1H-pyrrolo[3,2-c]pyridin-6-yl)-1H-pyrazole-4-carboxamide], for which the inhibition at 1 µM under setting [1] was 0 to 33%. In addition, the inhibition at 10 µM under setting [2] fell in the range of 0 to 33%.

In the case of `COCCOc1ccc(C(=O)Nc2cc3[nH]c(-c4ccnc(OC)n4)cc3cn2)cc1OC` [Example 252, 3-methoxy-4-(2-methoxyethoxy)-N-(2-(2-methoxypyrimidin-4-yl)-1H-pyrrolo[3,2-c]pyridin-6-yl)benzamide], the inhibition at 1 µM under setting [1] was in the range of 0 to 33%. Further, the inhibition at 10 µM under setting [2] lay in the range of 0 to 33%.

On to `Cc1cc(-c2cc3cnc(NC(=O)C(C)(C)C)cc3[nH]2)ccn1` [Example 301, N-(2-(2-methylpyridin-4-yl)-1H-pyrrolo[3,2-c]pyridin-6-yl)pivalamide], for which, under setting [1], the inhibition at 1 µM fell in the range of 0 to 33%. Moreover, the inhibition at 10 µM under setting [2] lay within 0 to 33%.

Values taken from US20240124444A1 (Celgene Corporation, priority 2020, published 2024).
